Results from US12458660B2, “Methods of attenuating an immune response by inhibition of BFL1” (CHILDREN'S HOSPITAL MEDICAL CENTER, priority 2018, dated 2025).
Like-named read-outs stand apart in the source and are kept apart here.

Key:
[1] = biological target: T1, BCL2A1 (A1) - NOXA binding (Mus musculus, UniProt Q07440, C113S/P104K); experiment: Competition fluorescence polarization assay, displacement of FITC-labeled mNOXA peptide from A1; details: for additivity for inhibition of A1-Noxa binding, checkerboard assay: NSC-97318 (P2) with NSC-45195 (P4), wide range of concentrations; for inhibition of NOXA binding in combination: with NSC-15508
T1 construct: A1 residues 1-152 (P104K, C113S) were expressed in the BL21 strain of Escherichia coli; hexa-His-MBP (cleaved yes); made in house; host or cells: Escherichia coli BL21
T1 sequence (Q07440 1-152 P104K/C113S): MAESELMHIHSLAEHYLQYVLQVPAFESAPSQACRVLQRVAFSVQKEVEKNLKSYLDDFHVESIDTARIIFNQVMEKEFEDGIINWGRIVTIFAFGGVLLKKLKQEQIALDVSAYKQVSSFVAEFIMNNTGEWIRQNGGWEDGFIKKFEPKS
Description: Representative compounds were additionally tested for inhibition of BH3 binding through competition-based fluorescence polarization (FP) assays. These assays were carried out using fluorescently labeled NOXA peptide which binds within the BH3-binding groove. The FP assay measures the tumbling rate of the labeled NOXA peptide. When NOXA is bound to A1, its rate of tumbling is low (and FP is high), whereas an effective inhibitor compound will displace NOXA, causing a fast rate of tumbling (and low FP value). Initially, a single high-dose experiment was performed with each compound using 100 μM of compound with BCL2A1 and FITC-NOXA, to observe the relative inhibition of the A1-NOXA interaction (FIG. 17B).
These compounds and any that were three standard deviations or more above the thermal shift controls in the DSF assays, along with those that were initially derived from early compounds with reasonable IC50 values, were tested in a dose-response experiment. To this end, 30 putative P2 inhibitors and 44 putative P4 inhibitors had their IC50 values determined. Of the dose responses, there was a surprising enrichment of putative P4 inhibitors among those that had IC50 values less than 50 μM. […] The following linear equation was used in the calculations (Tallarida et al., 2011),
Compounds were additionally tested for specificity of binding by displacement of FITC-labeled mouse NOXA (mNoxa; Peptide 2.0) peptide via fluorescence polarization assay (FP). FP assays were performed in two steps: single-point high-concentration compounds and dose response of fluorescence polarization hits. A1 was added at 3 μM to 100 μM of each compound in 20 mM Tris pH 7, 500 mM NaCl, 0.005% Tween-20 buffer. After addition of 375 nM labeled mNOXA, 96-well plates were incubated overnight at 20° C. in the dark to achieve equilibrium before fluorescence polarization was measured with a Biotek Synergy H2. Autofluorescent compounds and fluorescent quenching compounds were corrected via ratiometric correction as described by Shapiro et al., 2009.
Dose response curves were measured by adding 3 μM A1 to a serial two-fold dilution series of each compound ranging from 400 μM to 781 nM in 20 mM Tris pH 7, 500 mM NaCl, 0.005% Tween-20 buffer. Some compounds were further tested to assess the accuracy of these two-fold dilutions with serial 1.33-fold dilutions. A1, compounds, buffer and lastly, 375 nM FITC-labeled mNOXA were added to each well and incubated in the dark at 20° C. overnight to achieve equilibrium, followed by measurement of polarization. All dose responses were performed in triplicate.

primary splenocyte cells = experiment: In vitro apoptosis assay in activated primary splenocyte cells (trypan blue); assay type: cell-based, mice; details: WT and Bax/Bak-/- splenocytes, +/- polybrene
Description: An in vitro apoptosis assay utilizing primary splenocyte cells was used as a model system. In this system, compounds were added to wild-type primary splenocyte cells from mice that had been cultured and activated over four days. […] Mice deficient in Bax/Bak are unable to undergo intrinsic apoptosis due to the lack of the executioners in the pathway. […] Polybrene™ (hexadimethrine bromide) is a transfection reagent used to assist negatively-charged DNA molecules in traversal of the plasma membrane. Polybrene was included here to test whether it would improve the activity of negatively charged compounds.
Single-cell suspensions from spleen were generated by maceration through a 100 μm nylon mesh followed by LympholyteM ficoll gradient separation (Cedarlane Labs, Burlington, NC). Purified cells were then cultured on anti-CD3 coated (3 μg/mL, coated overnight, Biolegend, San Diego, CA) six-well plates in the presence of soluble anti-CD28 (2 μg/mL, Bio X Cell, West Lebanon, NH) and IL-2 (10 ng/mL, R&D Systems, Inc., Minneapolis, MN) in RPMI media (Life Technologies, Carlsbad, CA) for 24 hours at 37° C. Cells were then washed and cultured again in IL-2 (10 ng/mL) for 24 hours at 37° C. […]

[2] = system: chorio-decidua neutrophils; experiment: Chorio-decidua neutrophil survival in culture (Annexin V-/7aad- by flow cytometry); assay type: cell-based, Rhesus
Description: Importantly, Bcl2A1 was specifically expressed by CD neutrophils, and rhIL1ra decreased BCL2A1+ neutrophils (FIG. 9B). Neutrophil expression of Bcl2A1 could be constitutive or induced. Since control CAD tissue have very few neutrophils, we compared expression of Bcl2A1 and other important mediators of apoptosis in CD neutrophils vs. blood neutrophils from the same IA LPS-exposed animals.
Neutrophils were cultured overnight (16 h) at 37° C., in 5% CO2 in DMEM:F12 containing 10% fetal bovine serum, 100 IU/ml penicillin, 100 IU/ml streptomycin, and 2 mmol/L glutamine, in 24-well plate ([…] were stained with a cocktail of Abs as above for immunophenotyping and analyzed by flow cytometry within 30 minutes and cell survival was indicated as percentage of Annexin V^−/7aad^− cells (BD Bioscience).
The chosen doses were optimum based on dose response curves that were generated using blood neutrophils. ABT737 concentrations≥1 μM were toxic to the cells (not shown).

[3] = Anakinra (rhIL-1ra) pharmacokinetics in pregnant Rhesus macaques, human IL-1ra ELISA; assay type: in vivo, Rhesus macaques (Macaca mulatta)
Description: Recombinant human IL-1 receptor antagonist (“Anakinra” or “rhIL 1ra”) was injected into the amniotic fluid (“AF”) and subcutaneously in the dams (FIG. 3A). […] The low (0.2%) diffusion of Anakinra from maternal blood to amniotic fluid 2 h after maternal subcutaneous (SC) before the AF Anakinra dosing is notable. In addition, a slower clearance of Anakinra from the AF compared to maternal plasma is observed.
(§1) All animal procedures were approved by the Institutional Animal Care and Use Committee at the University of California, Davis. Normally cycling, adult female rhesus macaques (Macaca mulatta) (n=43) were time mated. At ˜130 d of gestation (˜80% of term gestation), the pregnant rhesus received either 1 ml saline solution (n=16) or 1 mg LPS (Sigma-Aldrich, St. Louis, MO) in 1 ml saline solution by ultrasound-guided IA injection. Dams were surgically delivered 16 h (n=13) or 48 h (n=8) later. Multiparous macaques and their fetuses were similar in demographics (Table 4). After delivery, fetuses were euthanized with pentobarbital, and fetal tissues were collected. There were no spontaneous deaths or preterm labor in the animals. IL-1 signaling was blocked by recombinant human IL-1R antagonist (rhIL-1RA; Anakinra Sobi, Stockholm, Sweden) given to the pregnant monkey IA (50 mg) and subcutaneous (100 mg) 1 and 3 h before LPS, as previously described (Rueda et al., 2016; FIG. 3).
Cytokine/chemokine concentrations in AF, fetal, and maternal plasma were determined by Luminex using non-human primate multiplex kits (Millipore). Lipids were extracted from the AF using methanol to measure Prostaglandins PGE2 (Oxford Biomedical Research, Oxford, MI) and PGF2a (Cayman Chemical, Ann Arbor, MI) concentrations. Anakinra (rhIL1ra) levels in AF, fetal, and maternal plasma were determined by human IL1ra/IL-1F3 Quantikine ELISA kit (R&D System, Minneapolis, […]). This kit has low cross-reactivity to Rhesus IL-1ra.

[4] = system: IA LPS-induced chorioamnionitis (IL-1 signaling); experiment: LPS-induced chorioamnionitis Rhesus monkey model with IL-1R blockade; assay type: in vivo, Rhesus macaques (Macaca mulatta)
From the text: We utilized the LPS-induced chorioamnionitis Rhesus monkey model system to study the pathogenesis of IUI, and particularly the role of IL-1 signaling in chorioamnionitis. A human recombinant IL-1 receptor antagonist (referred to herein as “hIL-lra” or by its generic name, “anakinra”) which inhibits both IL-1β and IL-lα signaling was used to experimentally block IL-1 signaling.
as §1
Both Rhesus and human purified decidua cell suspensions were prepared as previously described (Presicce et al., 2015). Briefly, extra-placental membranes were dissected away from the placenta. Decidua cells were scraped from the amnion-chorion. Amnion was then separated from chorion and flash-frozen for protein and RNA studies. Decidua tissue was washed, and digested with Dispase II (Life Technologies, Grand Island, NY) plus collagenase A (Roche, Indianapolis, IN) for 30 min followed by DNase I (Roche) treatment for another 30 min. Cell suspensions were filtered subjected to Red blood cell lysis and prepared for flow cytometry. Viability was >90% by trypan blue exclusion test.
Commercially available monoclonal antibodies (mAbs) were used for multiparameter flow cytometry (LSR Fortessa 2, BD Biosciences, San Diego, CA) and immunophenotyping was done on fresh chorio-decidua cell suspensions, except for T-cell phenotyping, which was done on cultured cells since cell isolation procedure down-regulates CD4/8 expression. Chorio-decidua cell TNFα expression was measured by flow cytometry with anti-TNF Ab (Cytofix/Cytoperm; BD Bioscience). To measure cytokine expression induced by in vivo exposures, flow cytometry was done on cells immediately after isolation without any stimulation and/or intracellular blockers. For all protocols, cells were treated with […] human immunoglobulin G (IgG) to block Fc receptors, stained for surface markers for 30 min at 4° C. in PBS, washed, and fixed in fixative stabilizing buffer (BD Bioscience). All antibodies were titrated for optimal detection of positive populations and mean fluorescence intensity. At least 500,000 events were recorded for each sample. Doublets were excluded based on forward scatter properties, and dead cells were excluded using LIVE/DEAD Fixable Aqua dead cell stain (Life Technologies). Unstained and negative biological population were used to determine positive staining for each marker. Data were analyzed using FlowJo version 9.5.2 software (TreeStar Inc., Ashland, OR).
Immunofluorescence was performed as previously described (Presicce et al., 2015). Briefly, paraffin embedded Rhesus fetal membrane sections were sectioned, subjected to antigen-retrieval by microwave boiling in citrate buffer followed by incubation with either anti-human CXCL8 (product G265-8; 1:25 dilution; BD Biosciences), or BCL2A1 (product b450; 1:50 dilution; LSBio, Seattle, WA), in 10% normal horse serum/0.2% Tween-20 at 4° C. overnight. […]

Q: With `Cc1cc(N)ccc1/N=N/c1ccc(/N=N/c2ccc3cc(S(=O)(=O)O)cc(S(=O)(=O)O)c3c2)c(C)c1` [Compound 1.002] as the compound, how does the IC50 ([1]; P4 inhibitor 79711 in combination with P2 inhibitor 97318, read-out: IC50 upon P2 and P4 ligand binding) read?
A: 6.3 µM

Q: And the IC50 ([1]; compound alone, inhibition of A1-NOXA binding, read-out: IC50)?
A: 17.1 µM

Q: With `Cc1ccc(NC(=O)c2cc3ccccc3c(/N=N/c3cc(S(=O)(=O)O)ccc3O)c2O)c(C)c1` [Compound 1.001] as the compound, how does the “effect on cell survival” value (primary splenocyte cells) read?
A: some effect

Q: What about the “inhibition of Noxa binding in FP assays” value [1] of the same compound?
A: strong inhibition

Q: And the “additivity for inhibition of A1-Noxa binding, checkerboard assay” value [1]?
A: low level additivity

Q: Which “additivity for inhibition of A1-Noxa binding, checkerboard assay” value [1] does the source give for `Cc1cc(O)ccc1/N=N/c1ccc2cc(S(=O)(=O)O)cc(S(=O)(=O)O)c2c1` [Compound 1.003] here?
A: low level additivity

Q: And the “inhibition of NOXA binding in combination” value [1]?
A: cooperative inhibition

Q: For `CN(C)CC[C@H](CSc1ccccc1)Nc1ccc(S(=O)(=O)NC(=O)c2ccc(N3CCN(Cc4ccccc4-c4ccc(Cl)cc4)CC3)cc2)cc1[N+](=O)[O-]` [ABT-737], which “frequency of chorio-decidua Annexin V-/7aad- (non-apoptotic) neutrophils” value ([2]; 0.1 µM, cultured 16 hr) is on record?
A: did not show any significant effect

Q: And the “concentrations toxic to the cells” value ([2]; dose response curves generated using blood neutrophils, not shown)?
A: ≥ 1000 nM

Q: What does the source list for “rhIL1ra: human recombinant IL-1 receptor antagonist which inhibits both IL-1β and IL-1α signaling”?
A: diffusion from maternal blood to amniotic fluid ([3]; 2 h after maternal subcutaneous dose, before AF dosing): 0.2%; transfer to fetal plasma ([3]; 19 h level, trans-placental transfer): substantial transfer; elimination in the AF compared to maternal blood ([3]; amniotic fluid vs maternal blood): slower; concentrations in AF and maternal blood ([3]; both compartments): therapeutic concentrations; LPS induced amniotic fluid concentration of PGE2 ([4]; ELISA of lipid extract): decreased; LPS-induced pIRAK1 in the amnion ([4]; IA LPS 16 h, immunoblot): decreased; expression of CSF3 in the amnion ([4]; IA LPS 16 h, mRNA): decreased; expression of CXCL8 in the amnion ([4]; IA LPS 16 h, mRNA): decreased; expression of IL6 in the amnion ([4]; IA LPS 16 h, mRNA): decreased; number (counts) of chorio-decidua neutrophils ([4]; IA LPS, FIG. 5B): to near controls levels; reduction of chorio-decidua neutrophil numbers ([4]; IA LPS, blocking IL-1R): ~90%; overall CD leukocyte counts ([4]; IA LPS, data not shown): decreased; CD16 expression in CD neutrophils ([4]; IA LPS, flow cytometry): to near control levels; CD63 expression in CD neutrophils ([4]; IA LPS, flow cytometry): to near control levels; chorio-decidua B-cell numbers ([4]; IA LPS, flow cytometry): to control levels; frequency of TNFα+ CD neutrophils ([4]; IA LPS, flow cytometry): reversed; neutrophil accumulation in the CD ([4]; IA LPS, flow cytometry): reversed; CAD expression of Bcl2A1 ([4]; LPS-exposed animals, quantitative PCR): reversed; BCL2A1+ neutrophils ([4]; chorio-decidua interface, cell count/HPF): decreased; IA LPS induced CD neutrophils expressing CXCL8 ([4]; immuno-histology): decreased; LPS induced amniotic fluid concentration of CXCL8 ([4]; multiplex ELISA): decreased; LPS induced amniotic fluid concentration of IL6 ([4]; multiplex ELISA): decreased; LPS induced amniotic fluid concentration of MCP1 ([4]; multiplex ELISA): decreased

Q: With `Cc1cc(/N=N/c2ccc(/N=N/c3c(O)c(S(=O)(=O)O)cc4cc(S(=O)(=O)O)ccc34)cc2C)ccc1/N=N/c1ccc2cc(S(=O)(=O)O)cc(S(=O)(=O)O)c2c1` [Compound 1.004] as the compound, how does the “increase in inhibition relative to NSC-45195” value ([1]; SAR comparison) read?
A: roughly a two-fold increase in inhibition

Q: What about the “inhibition of NOXA binding in combination” value [1] of the same compound?
A: cooperative inhibition
